Earlier results as cited in patent US9050307B2, “Method for the preparation of a levothyroxine solution” (EMP Pharma GmbH, priority 2011, dated 2015).

Q: What does the source list for `N[C@@H](Cc1cc(I)c(Oc2cc(I)c(O)c(I)c2)c(I)c1)C(=O)[O-].[Na+]` [Levothyroxine sodium, Sodium (2S)-2-amino-3-[4-(4-hydroxy-3,5-diiodophenoxy)-3,5-diiodophenyl]propanoate]?
A: Solubility in ethanol (96 percent) (ethanol (96 percent)): slightly soluble; Solubility in water (water): very slightly soluble
